The values that follow come from ChEMBL document CHEMBL4422615, “Novel non-xanthine antagonist of the A2B adenosine receptor: From HTS hit to lead structure” (Eur J Med Chem, 2019).

In data set [1] the target is T1, Adenosine receptor A2b (Homo sapiens, UniProt P29275).
T1 sequence (P29275 whole entry): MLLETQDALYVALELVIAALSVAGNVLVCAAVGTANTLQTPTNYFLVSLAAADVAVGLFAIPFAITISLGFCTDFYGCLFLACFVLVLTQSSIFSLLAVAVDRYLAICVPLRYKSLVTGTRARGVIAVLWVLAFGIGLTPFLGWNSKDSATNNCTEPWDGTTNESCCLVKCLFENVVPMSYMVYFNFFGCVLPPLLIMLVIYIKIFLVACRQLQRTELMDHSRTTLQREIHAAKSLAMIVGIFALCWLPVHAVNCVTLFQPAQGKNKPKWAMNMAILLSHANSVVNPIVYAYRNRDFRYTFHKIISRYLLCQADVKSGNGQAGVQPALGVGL
The data set can be described thus: Displacement of [3H]DPCPX from human A2B adenosine receptor expressed in HEK293 cell membranes after 60 mins by radioligand displacement assay. (In general: Loss of bound radioactivity is the signal in a displacement assay; it reports binding, not function.)

The species named for data set [2] is Homo sapiens. The data set can be described thus: Selectivity index, ratio of IC50 for human A1 adenosine receptor expressed in CHO cell membranes to IC50 for human A2B adenosine receptor expressed in HEK293 cell membranes. The format is cell-based.
For data set [3], the species on record is Homo sapiens. The data set can be described thus: Selectivity index, ratio of IC50 for human A3 adenosine receptor expressed in HEK293 cell membranes to IC50 for human A2B adenosine receptor expressed in HEK293 cell membranes. The format is cell-based.
For data set [4], the species on record is Homo sapiens. The data set can be described thus: Selectivity index, ratio of IC50 for human A2A adenosine receptor expressed in HEK293 cell membranes to IC50 for human A2B adenosine receptor expressed in HEK293 cell membranes. The format is cell-based.
Data set [5] can be described thus: Intrinsic clearance in rat hepatocytes by MS/MS analysis. In kind it is ADME, cell-based, Hepatocyte. The conditions noted are these: read-out: CLH (converted).

The IC50 is the concentration needed to halve the response being measured. The low end stands for greater potency in that assay, the high end for weaker potency in that assay. `COCCn1c(=O)n(CCc2ccccc2)c(=O)c2c3c(sc21)CCCC3` gave a half-maximal inhibitory concentration (IC50) in data set [1] of 490 nM. Besides, the figures for the Ratio IC50 in data set [2] and in data set [3] were 3 and 13, respectively.
As for `COCCn1c(=O)n(CCc2ccccc2)c(=O)c2c(C)c(C(=O)c3ccccc3)sc21`, the IC50 in data set [1] was 2300 nM. Further, the Ratio IC50 in data set [2] was 0.6; in data set [4], 3.
Take `COCCn1c(=O)n(CCN2CCS(=O)(=O)CC2)c(=O)c2c(C)csc21`: the IC50 in data set [1] is above 10000 nM. Besides, the Ratio IC50 in data set [2], in data set [4] and in data set [3] was 1 throughout.
The compound `COCCn1c(=O)n(CCc2ccccc2)c(=O)c2c3c(sc21)CCC3` had an IC50 in data set [1] of 97 nM. Besides, the Ratio IC50 in data set [2] worked out at 16; in data set [3] it was 69.
`COCCn1c(=O)n(CCc2ccccc2)c(=O)c2c(C)c(C(F)(F)c3ccccc3)sc21`: the IC50 in data set [1] turned out to be 2800 nM. For the same compound, the Ratio IC50 in data set [2] came out at 0.36; in data set [4], 3; in data set [3], 2.
Compound `COCCn1c(=O)n(CCc2ccccc2)c(=O)c2c(C)csc21` came in with an IC50 in data set [1] of 300 nM. The Ratio IC50 in data set [2] came to 9; in data set [4] it was 37; in data set [3], 22. Further, the predicted hepatic clearance in data set [5] is 66.7 mL/min/kg.
Regarding `COCCn1c(=O)n(CCc2ccccc2F)c(=O)c2c(C)csc21`, in data set [1], the IC50 was found to be 210 nM.
In turn, `CCn1c(=O)c2c(C)csc2n(CCOC)c1=O` returned a half-maximal inhibitory concentration (IC50) in data set [1] of 640 nM. In addition, the Ratio IC50 was found to be 6 in data set [2], 11 in data set [4] and 10 in data set [3].
As for `Cc1csc2c1c(=O)n(CCc1ccccc1)c(=O)n2CCF`, in data set [1], the IC50 came to 135 nM.
In data set [1], `COCCn1c(=O)n(CC(C)(C)C)c(=O)c2c(C)csc21` gave an IC50 of 1600 nM. Moreover, the values for the Ratio IC50 in data set [2], in data set [4] and in data set [3] were 7, 7 and 4, respectively.
In turn, `COCCn1c(=O)n(CCc2ccccc2)c(=O)c2c(C)c(C(C)(O)c3cncn3C)sc21` (stereo not drawn) displayed an IC50 in data set [1] of 1200 nM. The Ratio IC50 in data set [2] amounted to 2; in data set [4], 3; in data set [3], 6.
The matching figures for `COCCn1c(=O)n(CCc2ccccc2)c(=O)c2c(C)c(COC3CCCC3)sc21`: 250 nM, 4, 7 and 27.
The matching figures for `COCCn1c(=O)n(CCC2CCOCC2)c(=O)c2c(C)csc21`: above 10000 nM, 1, 1 and 1.
Turning to `Cc1csc2c1c(=O)n(CCc1ccccc1F)c(=O)n2CCC(F)(F)F`, the IC50 in data set [1] worked out at 73 nM. The Ratio IC50 in data set [2] stood at 36; in data set [4], 86; in data set [3], 91. Moreover, the predicted hepatic clearance in data set [5] is 68.3 mL/min/kg.
Consider `COCCn1c(=O)n(CCc2ccccc2)c(=O)c2c(C)c(C(=O)O)sc21`, for which, in data set [1], the 50% inhibitory concentration (IC50) was 2100 nM. The Ratio IC50 in data set [2] and in data set [4] was 5 each time. Also, the predicted hepatic clearance in data set [5] was 55 mL/min/kg.
Compound `COCCn1c(=O)n(CCc2ccccc2)c(=O)c2c(C)c(C(=O)N3CCCC3)sc21` showed an IC50 in data set [1] of 260 nM.
`CCOC(=O)c1sc2c(c1C)c(=O)n(CCc1ccccc1)c(=O)n2CCOC`: the IC50 in data set [1] came to 1700 nM. Moreover, the Ratio IC50 in data set [2] turned out to be 2; in data set [4], 6; in data set [3], 4.
Take `COCCn1c(=O)n(CCc2ccccc2)c(=O)c2c(C)c(Cl)sc21`: in data set [1], the IC50 turned out to be 3300 nM. For the same compound, the Ratio IC50 in data set [2] and in data set [4] was 3 in each case.
For `CCn1c(=O)c2c3c(sc2n(CCOC)c1=O)CCC3`, the IC50 in data set [1] amounted to 220 nM. Also, the Ratio IC50 in data set [2] stood at 18; in data set [4] it was 11; in data set [3] it was 30.
Consider `CCn1c(=O)c2c(C)c(C)sc2n(CCOC)c1=O`, for which the IC50 in data set [1] was 440 nM. The figures for the Ratio IC50 in data set [2], in data set [4] and in data set [3] were 9, 8 and 15, respectively.
`Cc1csc2c1c(=O)n(CCc1ccccc1)c(=O)n2CC#N` registered an IC50 in data set [1] of 130 nM.
On to `Cc1csc2c1c(=O)n(CCc1ccccc1)c(=O)n2Cc1nc2cc(S(N)(=O)=O)ccc2o1`, for which the IC50 in data set [1] was found to be 1100 nM. Further, the Ratio IC50 in data set [2] came to 0.83; in data set [4], 2; in data set [3], 6.
In the case of `Cc1csc2c1c(=O)n(CCc1ccccc1)c(=O)n2CC1CCCO1` (stereo in doubt; 7), the Ratio IC50 in data set [2] came to 46; in data set [4] it was 62; in data set [3], 37.
Take `COCCn1c(=O)n(CCc2ccccc2)c(=O)c2c(C)c(C(=O)N3CC(O)C3)sc21`: the IC50 in data set [1] came to 200 nM. In data set [5], the predicted hepatic clearance is 61.7 mL/min/kg.
The compound `Cc1csc2[nH]c(=O)n(CCc3ccccc3)c(=O)c12` displayed an IC50 in data set [1] of 480 nM. In addition, the Ratio IC50 worked out at 6 in data set [2] and 14 in data set [3]. In addition, the predicted hepatic clearance in data set [5] was 58.3 mL/min/kg.
The compound `COCCn1c(=O)n(CCc2ccccc2)c(=O)c2c(C)c(Cc3ccccc3)sc21` had an IC50 in data set [1] of 540 nM. The Ratio IC50 in data set [2] was 0.19; in data set [4] it was 4.
With `COCCn1c(=O)n(CCc2ccccc2)c(=O)c2c(C)c(CN3CCOCC3)sc21`, the IC50 in data set [1] turned out to be 760 nM. The Ratio IC50 is 1 in data set [2], 7 in data set [4] and 9 in data set [3].
`Cc1csc2c1c(=O)n(CCc1ccccc1)c(=O)n2CC(=O)Nc1cc(Cl)ccc1C(=O)O`: the IC50 in data set [1] is above 10000 nM.
As to `Cc1csc2c1c(=O)n(CCc1ccccc1)c(=O)n2CC1CCCO1` (racemic), the Ratio IC50 in data set [2] came out at 13; in data set [4] it was 21; in data set [3] it was 13.
In data set [1], `COCCn1c(=O)n(CC(F)(F)c2ccccc2)c(=O)c2c(C)csc21` registered an IC50 of 440 nM. In addition, the Ratio IC50 was found to be 9 in data set [2] and 25 in data set [4]. Besides, the predicted hepatic clearance in data set [5] was 66.7 mL/min/kg.
As for `COCCn1c(=O)n(CCc2ccccc2)c(=O)c2c(C)c(C(=O)c3cn(C)cn3)sc21`, the IC50 in data set [1] was determined as 190 nM. In addition, the Ratio IC50 in data set [2] was 4; in data set [4], 9; in data set [3], 35.
The matching figures for `CCn1c(=O)c2c3c(sc2n(CCOC)c1=O)CCCC3`: 390 nM, 5, 3 and 17.
The matching figures for `COCCn1c(=O)n(CCc2ccccc2)c(=O)c2c(C)c(CO)sc21`: 150 nM, 11, 40 and 43.
The compound `COCCn1c(=O)n(CCc2ccccc2)c(=O)c2c(C)c(C(=O)C3CC3)sc21` came in with a concentration for half-maximal inhibition (IC50) in data set [1] of 790 nM. Further, the Ratio IC50 was found to be 0.57 in data set [2], 1 in data set [4] and 8 in data set [3].
In the case of `COCCn1c(=O)n(CCc2ccccc2)c(=O)c2c(C)c(C)sc21`, in data set [1], the IC50 stood at 200 nM. For the same compound, the Ratio IC50 in data set [2] was 12; in data set [3] it was 33.
Take `Cc1csc2c1c(=O)n(CCc1ccccc1)c(=O)n2Cc1ncc[nH]1`: the IC50 in data set [1] was 130 nM. For the same compound, the Ratio IC50 was determined as 11 in data set [2], 35 in data set [4] and 51 in data set [3].
Turning to `COCCn1c(=O)n(CCc2ccccc2)c(=O)c2ccsc21`, in data set [1], the IC50 was found to be 4700 nM. Besides, the Ratio IC50 was 2 in data set [2], 2 in data set [4] and 1 in data set [3].
As for `Cc1csc2c1c(=O)n(CCc1ccccc1)c(=O)n2Cc1nccn1C`, in data set [1], the IC50 was found to be 145 nM. Moreover, the Ratio IC50 in data set [2] came to 4; in data set [4], 21; in data set [3], 46.
`COCCn1c(=O)n(CCc2ccccc2)c(=O)c2c(C)c(C(=O)N(C)OC)sc21` yielded an IC50 in data set [1] of 390 nM. In addition, the figures for the Ratio IC50 in data set [2], in data set [4] and in data set [3] were 9, 4 and 17, respectively.
With `COCCn1c(=O)n(Cc2ccccc2)c(=O)c2c(C)csc21`, the IC50 in data set [1] was above 10000 nM. Also, the Ratio IC50 in data set [2], in data set [4] and in data set [3] was 1 throughout.
Consider `Cc1csc2c1c(=O)n(CCc1ccccc1)c(=O)n2CCc1ccc(S(N)(=O)=O)cc1`, for which the IC50 in data set [1] came out at 1700 nM. Besides, the Ratio IC50 came to 2 in data set [2], 6 in data set [4] and 4 in data set [3].
Regarding `COCCn1c(=O)n(CCc2ccccc2)c(=O)c2c(C)c(-c3ccccc3)sc21`, the IC50 in data set [1] stood at 4900 nM. The Ratio IC50 came out at 0.65 in data set [2], 2 in data set [4] and 1 in data set [3].
In the case of `COCCn1c(=O)n(CC=C(F)F)c(=O)c2c(C)csc21`, the IC50 in data set [1] was 4900 nM. Further, the Ratio IC50 in data set [2] and in data set [4] was 2 throughout.
Compound `COCCn1c(=O)n(CC2(c3ccccc3)CC2)c(=O)c2c(C)csc21` came in with an IC50 in data set [1] of 1500 nM. The Ratio IC50 in data set [2] amounted to 1; in data set [4], 7.
Take `COCCn1c(=O)n(CCc2ccccc2)c(=O)c2c(C)c(CN3CCCC3)sc21`: the IC50 in data set [1] amounted to 200 nM. In addition, the predicted hepatic clearance in data set [5] was 61.7 mL/min/kg.
